Laboratory results: patent US20220193384A1, “CUTANEOUS DEVICE FOR STORING AND RELEASING MOLECULES, AND CORRESPONDING METHOD” (priority 2019, published 2022)
Values after ≈ are worked out from the molar mass of the structure shown. Read-outs that look alike come from different tables or passages of the source.

Legend:
[1] = C57BL/6, mouse, 100 μg mL^−1, pH 7.4
blood glucose level = experiment: In vivo blood glucose level after insulin injection or insulin-loaded electrothermal patch; settings: IP or subcutaneous injection of insulin (0.032 UI, 1.12 μg), C57BL/6 mice
[2] = drug passed through and remained inside the excised skin; cited from earlier work
[3] = test system: Gram-negative E. coli K12; experiment: Minimum inhibitory concentration (MIC); type: cell-based; settings: Escherichia coli
[4] = Skin permeation, static Franz diffusion cell, passive and electrothermally activated patch; settings: stock solution 100 μg mL^−1 for loading, mouse skin
[5] = electrothermal activation 1 V, 10 min

Row | Active, amount of drug permeated [1] [µg/mL] | Flux active [1] [μg cm^−2 h^−1] | Flux passive [1] [μg cm^−2 h^−1] | Passive, amount of drug permeated [1] [µg/mL] | Compound | further results
1 | 62 | 6.61 | 0 | 0 | COc1cccc2c1C(=O)c1c(O)c3c(c(O)c1C2=O)C[C@@](O)(C(=O)CO)C[C@@H]3O[C@H]1C[C@H](N)[C@H](O)[C@H](C)O1 [doxorubicin] | –
2 | – | – | – | – | insulin | Time to therapeutic effect (change in blood glucose level) (blood glucose level): about 15 min
3 | 23.1 | – | 0 | 0 | O=c1[nH]cc(F)c(=O)[nH]1 [5-fluorouracil] | Flux of 5-fluorouracil reported by Xie et al. [2]: 1.64 μg cm^−2 h^−1
4 | – | – | – | – | CC1(C)S[C@@H]2[C@H](NC(=O)[C@H](N)c3ccccc3)C(=O)N2[C@H]1C(=O)O [ampicillin] | MIC [3]: 10 ± 0.5 µg/mL (≈ 28.6 µM)
5 | – | – | – | – | CO/N=C(\C(=O)N[C@@H]1C(=O)N2C(C(=O)[O-])=C(C[N+]3(C)CCCC3)CS[C@H]12)c1csc(N)n1 [cefepime] | MIC [3]: 10 ± 0.5 µg/mL (≈ 20.8 µM); Active, amount of drug permeated [4, 5]: 18.3 µg/mL; Flux active [4, 5]: 4.67 μg cm^−2 h^−1; Flux passive ([4]; passive, no activation): 0 μg cm^−2 h^−1; Passive, amount of drug permeated ([4]; passive, no activation): 0 µg/mL
6 | – | 4.68 | – | – | CN(C)C(=N)N=C(N)N [metformin] | –

Row | Compound | Active, amount of drug permeated [1] [µg/mL] | Flux active [1] [μg cm^−2 h^−1] | Flux passive [1] [μg cm^−2 h^−1] | Passive, amount of drug permeated [1] [µg/mL] | further results
7 | Cn1c(=O)c2c(ncn2C)n(C)c1=O [caffeine] | 58 | 15.09 | 7.18 | 28 | –
